According to patent US20230285347A1, “Preterm Labour with Prostaglandin E2 Receptor Agonists” (IMPERIAL COLLEGE INNOVATIONS LIMITED, priority 2020, published 2023):
Entries after “also recorded” stand apart in the source; their conditions may differ.

Tests used:
Type in all cases: cell-based
EP2 [1] = biological target: T1, EP2 (Homo sapiens, UniProt P43116); experiment: Intracellular calcium in myometrial cells with/without oxytocin pre-treatment; details: OT pre-treatment 1 hour, 100 nM; butaprost 10 μM, AH13205 10 μM, PGN9856i 100 nM; FIG. 11
T1 construct: primary human myocytes cultured from term pregnant, non-labouring, myometrium; endogenous in cells; host or cells: primary human myometrial cells (myocytes) cultured from pregnant myometrium
Description: Intracellular calcium response in myometrial cells with/without OT pre-treatment (1 hour, 100 nM) stimulated with butaprost (10 μM), AH13205 (10 μM) or PGN9856i (100 nM). Data are the mean of the maximum fluorescence intensity for each cell measured normalised to background (F-FO). Shown as fold-change over butaprost response. One-way ANOVA with Dunnett's multiple comparison post-hoc test: ##p<0.01. One-sample t-test: *p<0.05.

EP2 [2] = biological target: T1, EP2; experiment: cAMP in non-labouring myometrial cells with/without oxytocin pre-treatment; details: OT pre-treatment 1 hour, 100 nM; butaprost 10 μM, AH13205 10 μM, PGN9856i 100 nM; FIG. 10
Description: Myometrial cells with/without oxytocin (OT) pre-treatment (1 hour, 100 nM) were treated with IBMX (5 minutes, 0.5 mM) before 1 minute stimulation with IBMX with/without either DMSO, butaprost (10 μM), AH13205 (10 μM) or PGN9856i (100 nM). cAMP concentrations were normalised to protein. Each patient's data normalised to butaprost response and shown as mean±SEM, n=6. One-sample t-test: #p<0.05. ##p<0.01. One-way ANOVA with Sidak's multiple comparison post-hoc test: **p<0.01.
(§1) Confluent myometrial cells were treated with/without OT (100 nM) for 1 hour before 3 PBS washes and the addition of […] IBMX (3-isobutyl-1-methylxanthine) in PBS for 5 minutes at 37° C. This was exchanged for 0.5 μM IBMX in PBS plus either DMSO, butaprost (10 μM), AH13205 (10 μM) or PGN9856i (100 nM) for […]. Cells were lysed in Cisbio cAMP lysis buffer with 0.2% TritonX-100 and centrifuged for 15 minutes at 16,000 g. Lysates were normalized to protein concentration determined by Coomassie (Bradford) Protein Assay Kit and analysed as per manufacturers' protocol (Cisbio Gαs dynamic assay) using a PHERAstar FSX.

EP2 [3] = biological target: T1, EP2; experiment: PGE2 release by ELISA in primary myometrial cells; details: 6 hours, butaprost 10 μM, PGN9856i 100 nM, without OT, FIG. 7, FIG. 12
Text: Tissue culture media collected and used for ELISA. Data shown as mean±SEM from at least 3 independent experiments. One-way ANOVA with Dunnet's multiple comparison post-hoc test: *p<0.05, **p<0.01. PGN9856i is unable to elicit PGE2 release in primary myometrial cells.
(§2) In the myometrium EP2 is an important regulator of parturition. To assess if PGN9856i, butaprost and AH13205 induce similar second messenger profiles in the myometrium as HEK 293 cells, primary human myocytes cultured from term pregnant, non-labouring, myometrium, were treated with each ligand and intracellular cAMP, calcium and PGE2 release was measured.
Myometrial tissue was acquired at St. Mary's hospital, Queen Charlotte and Chelsea hospital and Charing Cross hospital, London. Tissue was obtained from women provided with informed written consent with the approval from the Riverside Research Ethics Committee (RREC 3357, 1997-5089, 19/LO/1657) and experiments were carried out under the committee's guidelines and recommendations. […]
Myometrial cells were treated for 6-hours with EP2 agonist (butaprost 10 μM, AH13205 10 μM or PGN9856i 100 nM) or DMSO with/without 1-hour OT (100 nM) pre-treatment. […] Samples were defrosted at room temperature and vortexed before quantification of IL-6 concentrations via ELISA as per manufacturer's instructions (Enzo Lifesciences).

EP2 [4] = biological target: T1, EP2; experiment: Intracellular calcium response in primary myometrial cells; details: PGN9856i 100 nM, FIG. 6
Text: One-way ANOVA with Dunnet's multiple comparison post-hoc test: **p<0.01, and (B) calcium intensity traces over time from representative cells from (A). PGN9856i is unable to elicit intracellular calcium release in primary myometrial cells.
as §2
Myometrial tissue was acquired at St. Mary's hospital, Queen Charlotte and Chelsea hospital and Charing Cross hospital, London. Tissue was obtained from women provided with informed written consent with the approval from the Riverside Research Ethics Committee (RREC 3357, 1997-5089, 19/LO/1657) and experiments were carried out under the committee's guidelines and recommendations. Tissues were obtained from term (38+0-40 weeks gestation) pregnant women undergoing elective caesarean from the upper margin of the incision made at the lower segment of the uterus, before or after the onset of labor. Tissues taken from women in early labour (<3 cm cervical dilation) or late labour (>3 cm cervical dilation) with/without induction with syntocinon, an oxytocin analogue. […]

human FLAG-tagged EP2 = biological target: T2, human FLAG-tagged EP2 (Homo sapiens, UniProt P43116); experiment: cAMP induction in HEK 293 cells stably expressing EP2 (Gαs readout); details: for cAMP efficacy at the maximal dose of each ligand: HEK 293 EP2 cells, 5 minutes of stimulation, no significant difference between ligands, FIG. 2
T2 construct: FLAG; expressed in transfected cells
Description: EP2 is a dually coupled GPCR capable of activating downstream signalling pathways via Gαs (anti-labour inducing) and Gαq/11 (pro-labour inducing).
HEK 293 cells were maintained in DMEM (Dulbecco's Modified Eagle Medium) containing 10% fetal bovine serum and 100 μ/ml penicillin-streptomycin, and cultured in 75 cm flasks at 37° C. in 95% air and 5% CO2. Cells at 95% confluency were passaged using 0.25% trypsin with 0.02% EDTA in phosphate-buffered saline (PBS).
as §1

T2 sequence (P43116 whole entry): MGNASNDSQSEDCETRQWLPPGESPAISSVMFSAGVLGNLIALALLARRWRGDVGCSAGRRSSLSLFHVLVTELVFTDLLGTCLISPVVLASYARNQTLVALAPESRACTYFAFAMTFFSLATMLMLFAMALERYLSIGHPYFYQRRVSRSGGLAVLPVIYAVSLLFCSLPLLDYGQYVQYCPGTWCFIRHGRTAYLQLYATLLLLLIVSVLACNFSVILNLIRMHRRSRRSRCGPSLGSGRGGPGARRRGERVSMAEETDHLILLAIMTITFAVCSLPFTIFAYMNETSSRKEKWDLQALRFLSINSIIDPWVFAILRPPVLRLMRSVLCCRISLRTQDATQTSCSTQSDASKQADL
T1 sequence (P43116 whole entry): as above

| effect of OTR activation on ligand's ability to increase intracellular cAMP (EP2 [2]) | activation of calcium pathway (EP2 [4]) | cAMP efficacy at the maximal dose of each ligand (human FLAG-tagged EP2) | Structure (SMILES) | calcium response with OT pre-treatment (EP2 [1]) | PGE2 release (EP2 [3]) | EC50 for EP2 agonist-mediated induction of cAMP (relative potency) (human FLAG-tagged EP2; HEK 293 cells stably expressing human FLAG-tagged EP2, dose-response curves, FIG. 1) |
| --- | --- | --- | --- | --- | --- | --- |
| significantly reduced | unable to activate calcium | equally efficacious | CC(C)OC(=O)COc1cccc(NC(=O)c2cc(-c3cccc(F)c3)ccc2F)c1 [PGN9856i, propan-2-yl 2-(3-{3′,4-difluoro-[1,1′-biphenyl]-3-amido}phenoxy)acetate] | unable to elicit a response | unable to activate; also recorded: unable to cause PGE2 release | greatest potency, by three orders of magnitude |
| significantly reduced |  | equally efficacious | CCCC1([C@H](O)C/C=C/[C@H]2[C@H](O)CC(=O)[C@@H]2CCCCCCC(=O)OC)CCC1 [butaprost] | significantly enhance the calcium response | significantly enhanced PGE2 release |  |
